From ChEMBL document CHEMBL4813939, “Diterpenoids and Diacetylenes from the Roots of Aralia cordata with Inhibitory Effects on Nitric Oxide Production” (J Nat Prod, 2021)

How the values were obtained:
RAW264.7 [1] = assay: Cytotoxicity against mouse RAW264.7 cells assessed as reduction in cell viability by MTT assay; type: cell-based
RAW264.7 [2] = assay: Anti-inflammatory activity in mouse RAW264.7 cells assessed as inhibition of LPS-induced NO production preincubated for 1 hr followed by LPS stimulation and measured after 24 hrs by Griess reagent based assay; type: functional, cell-based

Structure (SMILES)	Activity (RAW264.7 [1])	IC50 (RAW264.7 [2]) [µM]
C[C@@]12CCC[C@@](C)(C(=O)O)[C@H]1CCC1=C[C@@](C)([C@H]3CO3)CC[C@H]12	Non-Toxic	69.4
C=C/C(C)=C\C[C@@H]1C(=C)CC[C@@H]2[C@](C)(CO)CCC[C@@]12C	Non-Toxic	44
C=C[C@@]1(C)CC=C2C(CC[C@@H]3[C@](C)(CO)CCC[C@@]23C)C1 (stereo partly drawn)	Non-Toxic	17.6
C=CCCCCC/C=C\[C@H](O)C#CC#CC(CC)OC(=O)/C=C/c1ccc(O)cc1 (stereo partly drawn)	Non-Toxic	1.1
C=C[C@@]1(C)CCC2=C(C1=O)[C@H](O)C[C@@H]1[C@](C)(C(=O)O)CCC[C@@]21C	Non-Toxic	21.7
C=CCCCCC/C=C\[C@H](O)C#CC#C[C@@H](O)CC [DENDROARBOREOL A]	Non-Toxic	40.5
C=C[C@]1(C)C=C2C(=O)C[C@H]3[C@@](C)(CCC[C@@]3(C)C(=O)O)[C@@H]2CC1	Non-Toxic	66.8
CC(C)CC(=O)OC[C@@]1(O)C[C@@]23CC[C@H]4[C@@](C)(CCC[C@@]4(C)C(=O)O)[C@@H]2CC[C@@H]1C3	Non-Toxic	28.2
C=C[C@@]1(C)CC=C2[C@@H](CC[C@@H]3[C@](C)(C(=O)O)CCC[C@@]23C)C1=O	Non-Toxic	10
CC(C)CC(=O)OC[C@H](O)[C@]1(C)C=C2CC[C@H]3[C@@](C)(CCC[C@]3(C)C(=O)O)[C@@H]2CC1	Non-Toxic	35.1
C[C@@]12CCC[C@@](C)(C(=O)O)[C@H]1CC[C@]13C=C(C(=O)O)[C@H](CC[C@H]12)C3	Non-Toxic	51.1
C[C@@]12CCC[C@@](C)(C(=O)O)[C@H]1CC[C@]13C=C(C=O)[C@H](CC[C@H]12)C3	Non-Toxic	14.2
C=C1[C@@H]2CC[C@H]3[C@]4(C)CCC[C@@](C)(C(=O)O)[C@H]4CC[C@]3(C2)[C@H]1O	Non-Toxic	25.4
C=CCCCCC/C=C\[C@@H](C#CC#C[C@@H](O)CC)OC(C)=O	Non-Toxic	2.3
C=C[C@@]1(C)CCC2=C(C1)C(=O)C[C@@H]1[C@](C)(C(=O)O)CCC[C@@]21C	Non-Toxic	14.9
C=C[C@]1(COC(=O)CC(C)C)C=C2CC[C@H]3[C@@](C)(CCC[C@@]3(C)C(=O)O)[C@@H]2CC1	Non-Toxic	10.6
C=C[C@H](O)C#CC#C[C@@H](O)/C=C\CCCCCCC	Non-Toxic	5.4
C=C[C@]1(C)C=C2CC[C@@H]3[C@](C)(CO)CCC[C@@]3(C)[C@@H]2CC1	Non-Toxic	10.2
C=C[C@@]1(C)CCC2=C(CC[C@@H]3[C@](C)(C(=O)O)CCC[C@@]23C)C1=O	Non-Toxic	11.5
N=C(N)NN [PIMAGEDINE]		18.7
C=C1C[C@@]23CC[C@@H]4[C@](C)(CO)CCC[C@@]4(C)[C@@H]2CC[C@@H]1C3	Non-Toxic	5.4
C[C@@]12CCC[C@@](C)(C(=O)O)[C@H]1CC[C@]13C=C(CO)[C@H](CC[C@H]12)C3	Non-Toxic	47.8
